Experiment [1] concerns the target human KHK-C (Homo sapiens (Human), UniProt P50053). Kind of experiment: KHK Biochemical Assay (IC50), ADP-Glo, KHK-C. To be noted: average of at least two separate assays. A digest of the protocol: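 ADP-Glo luminescence measured ADP made over a 4 h room-temperature reaction of ATP plus fructose, started after 30 min compound–enzyme pre-incubation. Buffer: 50 mM Hepes pH 7.4, 140 mM KCl, 5 mM MgCl2, 0.01% Triton-X. Enzyme was His-tagged, BL21 (DE3)-expressed, Ni-NTA-purified; compounds in 1:3 DMSO dilution series.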
On the technique in general: ADP-Glo turns the ADP formed in a reaction into a luminescent signal.

For experiment [2], the system named is HepG2 cells. Kind of experiment: F1P Cell-Based Assay (EC50), 13C6-fructose-1-phosphate in HepG2 cells (cell culture medium or 50% human plasma). The following applies: Homo sapiens. On the procedure: F1P Cell-Based Assay (EC50)
Compounds were serially diluted (1:3) in DMSO. The LabCyte ECHO Acoustic dispenser system was used to pre-spot the assay plates (Greiner, Catalog #781091) with 400 nL (200-fold final dilution in 80 μL assay volume) of compound. 25,000 cells/well HepG2 cells (ATCC Catalog #HB-8065) were plated in a 40 μL volume/well in DMEM medium with 4.5 g/L glucose, 1× Penicillin-Streptomycin-Glutamine, and 10% FBS, using a BioTEK dispenser in a biological hood and incubated overnight at 37° C., 5% CO2, 90% humidity. 40 μL/well serum free assay medium (for F1P assay in cell culture medium), or 40 μL/well 100% human plasma (for F1P assay in 50% human plasma) were then added to the plates on the following day, and incubated for 1 hour at 37° C., 5% CO2, 90% humidity. ^13C6-labelled fructose (Sigma, Catalog #587621) in sterile PBS was added to the plates at a final concentration of 5 mM. The plates were incubated for 2 hours at 37° C., 5% CO2, 90% humidity. The assay was quenched by washing the cells with sterile PBS and adding 60 μL/well of 80% (v/v) methanol, 2 mM ammonium acetate and 2.5 μM Crotonyl-CoA, using a BioTEK washer-dispenser system. The plates were then sealed and stored in the −80° C. freezer until ready for RapidFire readout. ^13C6-fructose-1-phosphate in individual wells was quantified using the Agilent RapidFire High-Throughput MS system in negative mode using a […]. Mobile Phase 1 consisted of 20 mM ammonium acetate with 0.05% acetic acid in 100% methanol. Mobile phase 2 consisted of 5 mM octylamine in water (pH adjusted to 5 using acetic acid). F1P signals in individual wells were normalized by crotonyl CoA internal control.

[3] abbreviates: HepG2, HepG2 cells, 50% human plasma, read-out: F1P 50% HP EC50.
The mark [4] stands for this setting: HepG2, read-out: F1P 10% FBS EC50, HepG2 cells, cell culture medium (10% FBS).

This note sets out measurements from patent US12410160B2 (Gilead Sciences, Inc., priority 2021, dated 2025).

For orientation: IC50 means the point on the concentration scale where inhibition reaches its midpoint. Higher therefore signals a need for much substance. For orientation: EC50 means the concentration needed to bring the measured effect to its halfway point.

SMILES strings stand for the structures. Read-outs that look alike come from different tables or passages of the source.

Sequence of human KHK-C (P50053 whole entry): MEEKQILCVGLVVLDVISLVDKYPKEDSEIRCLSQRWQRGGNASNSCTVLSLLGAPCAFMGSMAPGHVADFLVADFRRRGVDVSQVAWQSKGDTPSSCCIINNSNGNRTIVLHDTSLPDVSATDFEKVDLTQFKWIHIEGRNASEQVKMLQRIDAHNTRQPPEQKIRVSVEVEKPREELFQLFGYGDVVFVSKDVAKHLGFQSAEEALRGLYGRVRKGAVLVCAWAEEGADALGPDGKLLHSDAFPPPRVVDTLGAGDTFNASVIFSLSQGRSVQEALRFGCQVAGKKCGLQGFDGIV

`C[C@H]1[C@H](O)CN1c1nc(-c2ccc3c(c2)[C@@H](NS(C)(=O)=O)CC3)c2c(n1)C(F)(F)CC2` (single isomer, unassigned) [Example 622]: in experiment [1], 1.5 nM corresponded to half-maximal inhibition (IC50). Further, the EC50 in experiment [2] (setting [3]) amounted to 46.1 nM; in experiment [2] (setting [4]), 8.8 nM.

On to `C[C@H]1[C@H](O)CN1c1nc(-c2ccc3c(c2)[C@H](NS(C)(=O)=O)CC3)c2c(n1)C(F)(F)CC2` (single isomer, unassigned) [Example 623], for which, in experiment [1], the IC50 was 1.3 nM. Besides, the EC50 was determined as 34.8 nM in experiment [2] (setting [3]) and 6.8 nM in experiment [2] (setting [4]).

In experiment [1], `C[C@H]1[C@H](O)CN1c1nc(-c2ccc3c(c2)C(C)(C)C[C@H]3NS(C)(=O)=O)c2c(n1)C(F)(F)CC2` (single isomer, unassigned) [Example 631] gave an IC50 of 10.7 nM. Moreover, the EC50 in experiment [2] (setting [3]) was above 500 nM; in experiment [2] (setting [4]), 78.9 nM.

In the case of `C[C@H]1[C@H](O)CN1c1nc(-c2ccc3c(c2)S(=O)(=O)C[C@@H]3N)c2c(n1)C(F)(F)CC2` (single isomer, unassigned) [Example 662], the IC50 in experiment [1] is 3.1 nM. The concentration giving a half-maximal response (EC50) in experiment [2] (setting [3]) was determined as 17.2 nM; in experiment [2] (setting [4]), 22.6 nM.

`C[C@H]1[C@H](O)CN1c1nc(-c2ccc([C@@H](N)CC#N)cc2)c2c(n1)C(F)(F)CC2` (single isomer, unassigned) [Example 779] registered an IC50 in experiment [1] of 7.1 nM. The EC50 was found to be 37.7 nM in experiment [2] (setting [3]) and 47.5 nM in experiment [2] (setting [4]).

For `NC1(c2ccc(-c3nc(N4CC(F)(F)[C@H]4CO)nc4c3CCC4(F)F)cc2)CS(=O)(=O)C1` (single isomer, unassigned) [Example 783], the IC50 in experiment [1] stood at 98.7 nM. Moreover, the EC50 in experiment [2] (setting [3]) and in experiment [2] (setting [4]) was above 500 nM in each case.

Consider `NC1(c2ccc(-c3nc(N4CC(F)(F)[C@@H]4CO)nc4c3CCC4(F)F)cc2)CS(=O)(=O)C1` (single isomer, unassigned) [Example 784], for which, in experiment [1], half-maximal inhibition (IC50) was put at 7.9 nM. Also, the EC50 turned out to be 91.9 nM in experiment [2] (setting [3]) and 119 nM in experiment [2] (setting [4]).

`C[C@H]1[C@H](O)CN1c1nc(-c2cc(F)c3c(c2)OC[C@H]3NS(C)(=O)=O)c2c(n1)C(F)(F)CC2` (single isomer, unassigned) [Example 812]: the IC50 in experiment [1] (ADP-Glo) is 0.7 nM. For the same compound, the values for the EC50 in experiment [2] (setting [3]) and in experiment [2] (setting [4]) were 40.3 nM and 11.2 nM, respectively.

In turn, `C[C@H]1[C@H](O)CN1c1nc(-c2ccc3c(c2)CC[C@H]3NS(C)(=O)=O)c2c(n1)C(F)(F)CC2` [Example 473, N—((R)-5-(7,7-difluoro-2-((2S,3R)-3-hydroxy-2-methylazetidin-1-yl)-6,7-dihydro-5H-cyclopenta[d]pyrimidin-4-yl)-2,3-dihydro-1H-inden-1-yl)methanesulfonamide] had an IC50 in experiment [1] of 7.5 nM. Besides, the figures for the EC50 in experiment [2] (setting [3]) and in experiment [2] (setting [4]) were 111 nM and 63.5 nM, respectively.

`C[C@H]1[C@H](O)CN1c1nc(-c2ccc3c(c2)CCC32COC(=O)N2)c2c(n1)C(F)(F)CC2` (stereo partly drawn) [Example 474, 5-(7,7-difluoro-2-((2S,3R)-3-hydroxy-2-methylazetidin-1-yl)-6,7-dihydro-5H-cyclopenta[d]pyrimidin-4-yl)-2,3-dihydrospiro[indene-1,4′-oxazolidin]-2′-one] had an IC50 in experiment [1] of 1 nM. Besides, the results for the EC50 in experiment [2] (setting [3]) and in experiment [2] (setting [4]) were 45.1 nM and 22.5 nM, respectively.

`COc1cc(-c2nc(N3C[C@@H](O)[C@@H]3C)nc3c2CCC3(F)F)cc2c1C(NS(C)(=O)=O)CO2` (stereo partly drawn) [Example 477, N-(6-(7,7-difluoro-2-((2S,3R)-3-hydroxy-2-methylazetidin-1-yl)-6,7-dihydro-5H-cyclopenta[d]pyrimidin-4-yl)-4-methoxy-2,3-dihydrobenzofuran-3-yl)methanesulfonamide]: in experiment [1], the IC50 amounted to 0.4 nM. Further, the EC50 in experiment [2] (setting [3]) was found to be 25.9 nM; in experiment [2] (setting [4]) it was 6 nM.
